Measured values taken from patent publication US10954287B2, “Ras binding peptides and methods of use” (Ra Pharmaceuticals, Inc., priority 2016, dated 2021).
*1 amine or outer side, *2 acyl side, *3 side chain or, on linkers, in order; H or OH if unused. Where a SMILES comes first, the peptide text is derived from it. Bridges are numbered along the chain shown (N, C = ends). [ ]: non-standard residue; d: D form. Trp(7-aza) = N[C@@H](Cc1c[nH]c2ncccc12)C(=O)O; NMePhe(4-F) = CN[C@@H](Cc1ccc(F)cc1)C(=O)O; Alexa Fluor 594 = N-terminal label (ALF); mXylylene = c1cc(C[*:1])cc(C[*:2])c1; Phg = N[C@H](C(=O)O)c1ccccc1; Tle = CC(C)(C)[C@H](N)C(=O)O; NMeA = CN[C@@H](C)C(=O)O; Pra = C#CC[C@H](N)C(=O)O; Nva = CCC[C@H](N)C(=O)O; AEEA = NCCOCCOCC(=O)O; Sar = CNCC(=O)O

System: GMPPNP-loaded H-Ras or GTP-loaded K-Ras
Experiment: Fluorescence polarization competition assay with TAMRA-labeled probe R4007
Assay type: binding, human
Details: 120 nM Ras, 30 nM probe R4007, 60 minutes at room temperature; read-out: Probe displacement (nM IC50)
Description: R4000 was evaluated for competition with a TAMRA labeled probe (R4007) based on peptide R4000. The assay was performed in 384-well black, non-binding plates (Greiner Bio-One, Monroe, N.C.). GMPPNP-loaded H-Ras or GTP-loaded K-Ras, diluted in FP assay buffer (20 mM Tris-HCl, pH 7.5, 50 mM NaCl, 5 mM MgCl2, 1 mM EDTA, 0.002% Triton-X-100) for a final concentration of 120 nM was incubated with 30 nM R4007 for 20 minutes at room temperature. R4000 was serially diluted, added to the assay and incubated for 60 minutes at room temperature. Fluorescence polarization was detected with a SpectraMax Paradigm plate reader (Molecular Devices, Sunnyvale, Calif.) using the Rhodamine FP detection cartridge (535 nm/595 nm). Data was analyzed using GraphPad Prism and Ki determined using One Site Ki Curve fitting model.
Peptides were evaluated for competition with R4007, a probe consisting of TAMRA-labeled R4000, using a fluorescence polarization (FP) competition assay. The assay was performed in 384-well black, non-binding plates (Greiner Bio-One, Monroe, N.C.). GMPPNP-loaded H-Ras or GTP- loaded K-Ras, diluted in FP assay buffer (20 mM Tris-HCl, pH 7.5, 50 mM NaCl, 5 mM MgCl2, 1 mM EDTA, 0.002% Triton-X-100) for a final concentration of 120 nM was incubated with 30 nM probe for 20 minutes at room temperature. Peptides were serially diluted, added to the assay and incubated for 60 minutes at room temperature. Fluorescence was detected with a SpectraMax Paradigm plate reader (Molecular Devices, Sunnyvale, Calif.) using the Rhodamine FP detection cartridge (535 nm/595 nm). Data was analyzed and Ki determined using a One Site Ki Curve fitting model. Percent inhibition for each data point was calculated relative to the maximal binding in test compound-free control wells (showing no probe displacement) and Ras-free control wells (showing no probe binding) and the half-maximal inhibitory concentration (IC50), based on probe displacement, was determined.

Compound	IC50 [nM]
C=CC(=O)NC[C@@H]1NC(=O)[C@H](C)NC(=O)[C@H](C(C)(C)C)NC(=O)[C@H](Cc2ccc(O)cc2)NC(=O)[C@@H](NC(=O)[C@H](CCC)NC(C)=O)CSCc2cccc(c2)CSC[C@@H](C(N)=O)NC(=O)CN(C)C(=O)[C@H](Cc2ccc(F)cc2)N(C)C(=O)[C@H](Cc2ccc(O)cc2)NC(=O)[C@H](Cc2c[nH]c3ncccc23)NC(=O)[C@H](c2ccccc2)NC(=O)[C@H](C)N(C)C1=O (relative stereo) [Compound R4136, ACE-NVA-CYS*-TYR-TBG-ALA-DABAC2-NMA-PHG-7AW-TYR-MFF-SAR-CYS*-NH2]	392
CCC[C@H](NC(=O)CCCC(=O)O)C(=O)N[C@H]1CSCc2cccc(c2)CSC[C@@H](C(N)=O)NC(=O)CN(C)C(=O)[C@H](Cc2ccc(F)cc2)N(C)C(=O)[C@H](Cc2ccc(O)cc2)NC(=O)[C@H](Cc2c[nH]c3ncccc23)NC(=O)[C@H](c2ccccc2)NC(=O)[C@H](C)N(C)C(=O)[C@H](Cc2c[nH]cn2)NC(=O)[C@H](CCCCN)NC(=O)[C@H](C(C)(C)C)NC(=O)[C@H](Cc2ccc(O)cc2)NC1=O (relative stereo) [Compound R4103, GLA-NVA-CYS*-TYR-TBG-LYS-HIS-NMA-PHG-7AW-TYR-MFF-SAR-CYS*-NH2]	2
CCC[C@H](NC(C)=O)C(=O)N[C@H]1CSCc2cccc(c2)CSC[C@@H](C(=O)N[C@H](CO)C(=O)N[C@@H](CCCCN)C(=O)NCC(=O)N[C@@H](CSSC(C)(C)C)C(=O)N[C@H](C(=O)N[C@H](C(=O)N[C@@H](CC(C)C)C(=O)O)C(C)C)C(C)C)NC(=O)CN(C)C(=O)[C@H](Cc2ccc(F)cc2)N(C)C(=O)[C@H](Cc2ccc(O)cc2)NC(=O)[C@H](Cc2c[nH]c3ncccc23)NC(=O)[C@H](c2ccccc2)NC(=O)[C@H](C)N(C)C(=O)[C@H](Cc2c[nH]cn2)NC(=O)[C@H](CCCCN)NC(=O)[C@H](C(C)(C)C)NC(=O)[C@H](Cc2ccc(O)cc2)NC1=O (relative stereo) [Compound R4110, ACE-NVA-CYS*-TYR-TBG-LYS-HIS-NMA-PHG-7AW-TYR-MFF-SAR-CYS*-DSER-LYS-GLY-TDSPA-VAL-VAL-LEU]	16.4
CCC[C@H](NC(C)=O)C(=O)N[C@H]1CSCc2cccc(c2)CSC[C@@H](C(=O)N[C@H](CO)C(=O)N[C@H](C)C(=O)N[C@@H](CCCCN)C(=O)N[C@@H](CSSC(C)(C)C)C(=O)N[C@H](C(=O)N[C@H](C(=O)N[C@@H](CCSC)C(=O)O)[C@@H](C)CC)C(C)C)NC(=O)CN(C)C(=O)[C@H](Cc2ccc(F)cc2)N(C)C(=O)[C@H](Cc2ccc(O)cc2)NC(=O)[C@H](Cc2c[nH]c3ncccc23)NC(=O)[C@H](c2ccccc2)NC(=O)[C@H](C)N(C)C(=O)[C@H](Cc2c[nH]cn2)NC(=O)[C@H](CCCCN)NC(=O)[C@H](C(C)(C)C)NC(=O)[C@H](Cc2ccc(O)cc2)N(C)C1=O (relative stereo) [Compound R4129, ACE-NVA-CYS*-NMY-TBG-LYS-HIS-NMA-PHG-7AW-TYR-MFF-SAR-CYS*-DSER-DALA-LYS-TDSPA-VAL-ILE-MET]	227
CCC[C@H](NC(C)=O)C(=O)N[C@H]1CSCc2cccc(c2)CSC[C@@H](C(N)=O)NC(=O)CN(C)C(=O)[C@H](Cc2ccc(F)cc2)N(C)C(=O)[C@H](Cc2ccc(O)cc2)NC(=O)[C@H](Cc2c[nH]c3ncccc23)NC(=O)[C@H](c2ccccc2)NC(=O)[C@H](C)N(C)C(=O)[C@H](CCN)NC(=O)[C@H](C)NC(=O)[C@H](C(C)(C)C)NC(=O)[C@H](Cc2ccc(O)cc2)NC1=O (relative stereo) [Compound R4140, ACE-NVA-CYS*-TYR-TBG-ALA-DBA-NMA-PHG-7AW-TYR-MFF-SAR-CYS*-NH2]	608
CCC[C@H](N)C(=O)N[C@H]1CSCc2cccc(c2)CSC[C@@H](C(=O)N[C@H](CO)C(=O)N[C@@H](CCCCN)C(=O)NCC(=O)N[C@@H](CSSC(C)(C)C)C(=O)N[C@H](C(=O)N[C@H](C(=O)N[C@@H](CCSC)C(=O)O)[C@@H](C)CC)C(C)C)NC(=O)CN(C)C(=O)[C@H](Cc2ccc(F)cc2)N(C)C(=O)[C@H](Cc2ccc(O)cc2)NC(=O)[C@H](Cc2c[nH]c3ncccc23)NC(=O)[C@H](c2ccccc2)NC(=O)[C@H](C)N(C)C(=O)[C@H](Cc2c[nH]cn2)NC(=O)[C@H](CCCCN)NC(=O)[C@H](C(C)(C)C)NC(=O)[C@H](Cc2ccc(O)cc2)NC1=O (relative stereo) [Compound R4113, NVA-CYS*-TYR-TBG-LYS-HIS-NMA-PHG-7AW-TYR-MFF-SAR-CYS*-DSER-LYS-GLY-TDSPA-VAL-ILE-MET]	32.7
ALF-NVA-CYS*-TYR-NVA-PHG-MFF-THR-PRO-7AW-CYS*-7AW-GLU-GLU-NH2 ({Alexa Fluor 594}-[Nva]CY[Nva][Phg][NMePhe(4-F)]TP[Trp(7-aza)]C[Trp(7-aza)]EE-NH2; linker 2-10 via mXylylene) [Compound R4154, cyclized by a m-xylylene thioether bridge]	37400
C=CC(=O)NCCCC[C@H]1C(=O)N[C@@H](c2ccccc2)C(=O)N[C@@H](Cc2c[nH]c3ncccc23)C(=O)N[C@@H](Cc2ccc(O)cc2)C(=O)N(C)[C@@H](Cc2ccc(F)cc2)C(=O)N(C)CC(=O)N[C@H](C(N)=O)CSCc2cccc(c2)CSC[C@H](NC(=O)[C@H](CCC)NC(C)=O)C(=O)N[C@@H](Cc2ccc(O)cc2)C(=O)N[C@@H](C(C)(C)C)C(=O)N[C@@H](C)C(=O)N[C@@H](Cc2c[nH]cn2)C(=O)N1C (relative stereo) [Compound R4133, ACE-NVA-CYS*-TYR-TBG-ALA-HIS-MKAC-PHG-7AW-TYR-MFF-SAR-CYS*-NH2]	342
CCC[C@H](NC(C)=O)C(=O)N[C@H]1CSCc2cccc(c2)CSC[C@@H](C(N)=O)NC(=O)CN(C)C(=O)[C@H](Cc2ccc(F)cc2)N(C)C(=O)[C@H](Cc2ccc(O)cc2)NC(=O)[C@H](Cc2c[nH]c3ncccc23)NC(=O)[C@H](c2ccccc2)NC(=O)[C@H](C)N(C)C(=O)[C@H](Cc2c[nH]cn2)NC(=O)[C@H](CCCCNC(=O)c2ccc(N(C)C)cc2)NC(=O)[C@H](C(C)(C)C)NC(=O)[C@H](Cc2ccc(O)cc2)NC1=O (relative stereo) [Compound R4134, ACE-NVA-CYS*-TYR-TBG-DMABZK1-HIS-NMA-PHG-7AW-TYR-MFF-SAR-CYS*-NH2]	346
C#CC[C@@H]1NC(=O)CN(C)C(=O)[C@H](Cc2ccc(F)cc2)N(C)C(=O)[C@H](Cc2ccc(O)cc2)NC(=O)[C@H](Cc2c[nH]c3ncccc23)NC(=O)[C@H](c2ccccc2)NC(=O)[C@H](C)N(C)C(=O)[C@H](Cc2c[nH]cn2)NC(=O)[C@H](CCCCN)NC(=O)[C@H](C(C)(C)C)NC(=O)[C@H](Cc2ccc(O)cc2)NC(=O)COCCOCCNC1=O [Compound R4130, PEG1*-TYR-TBG-LYS-HIS-NMA-PHG-7AW-TYR-MFF-SAR-PRG*] (cyclo([AEEA]Y[Tle]KH[NMeA][Phg][Trp(7-aza)]Y[NMePhe(4-F)][Sar][Pra]))	268
CCC[C@H](NC(C)=O)C(=O)N[C@H]1CSCc2cccc(c2)CSC[C@@H](C(=O)O)NC(=O)CN(C)C(=O)[C@H](Cc2ccc(F)cc2)N(C)C(=O)[C@H](Cc2ccc(O)cc2)NC(=O)[C@H](Cc2c[nH]c3ncccc23)NC(=O)[C@H](c2ccccc2)NC(=O)[C@H](C)N(C)C(=O)[C@H](Cc2c[nH]cn2)NC(=O)[C@H](CCCCNC(CC(C)C)=C2C(=O)CC(C)(C)CC2=O)NC(=O)[C@H](C(C)(C)C)NC(=O)[C@H](Cc2ccc(O)cc2)NC1=O (relative stereo) [Compound R4135, ACE-NVA-CYS*-TYR-TBG-LYS-(DDE)-HIS-NMA-PHG-7AW-TYR-MFF-SAR-CYS*]	364
CCC[C@H](NC(C)=O)C(=O)N[C@H]1CSCc2cccc(c2)CSC[C@@H](C(N)=O)NC(=O)[C@H](C)N(C)C(=O)[C@H](Cc2ccc(F)cc2)N(C)C(=O)[C@H](Cc2ccc(O)cc2)NC(=O)[C@H](Cc2c[nH]c3ncccc23)NC(=O)[C@H](c2ccccc2)NC(=O)[C@H](C)N(C)C(=O)[C@H](Cc2c[nH]cn2)NC(=O)[C@H](CCCCN)NC(=O)[C@H](C(C)(C)C)NC(=O)[C@H](Cc2ccc(O)cc2)NC1=O (relative stereo) [Compound R4101, ACE-NVA-CYS*-TYR-TBG-LYS-HIS-NMA-PHG-7AW-TYR-MFF-NMA-CYS*-NH2]	1.45
CCC[C@H](NC(C)=O)C(=O)N[C@H]1CSCc2cccc(c2)CSC[C@@H](C(=O)O)NC(=O)CN(C)C(=O)[C@H](Cc2ccc(F)cc2)N(C)C(=O)[C@H](Cc2ccc(O)cc2)NC(=O)[C@H](Cc2c[nH]c3ncccc23)NC(=O)[C@H](c2ccccc2)NC(=O)[C@H](C)N(C)C(=O)[C@H](Cc2c[nH]cn2)NC(=O)[C@H](CCCCN)NC(=O)[C@H](C(C)(C)C)NC(=O)[C@H](Cc2ccc(O)cc2)NC1=O (relative stereo) [Compound R4108, ACE-NVA-CYS*-TYR-TBG-LYS-HIS-NMA-PHG-7AW-TYR-MFF-SAR-CYS*]	9.45
